Experimental data as given in ChEMBL document CHEMBL4145442, “Novel LCK/FMS inhibitors based on phenoxypyrimidine scaffold as potential treatment for inflammatory disorders” (Eur J Med Chem, 2017).

Assays:
[1] = biological target: T1, Tyrosine-protein kinase Lck (Homo sapiens, UniProt P06239); assay: Inhibition of LCK (unknown origin) after 120 mins in presence of 33P-ATP
Target sequence in this assay (P06239 whole entry): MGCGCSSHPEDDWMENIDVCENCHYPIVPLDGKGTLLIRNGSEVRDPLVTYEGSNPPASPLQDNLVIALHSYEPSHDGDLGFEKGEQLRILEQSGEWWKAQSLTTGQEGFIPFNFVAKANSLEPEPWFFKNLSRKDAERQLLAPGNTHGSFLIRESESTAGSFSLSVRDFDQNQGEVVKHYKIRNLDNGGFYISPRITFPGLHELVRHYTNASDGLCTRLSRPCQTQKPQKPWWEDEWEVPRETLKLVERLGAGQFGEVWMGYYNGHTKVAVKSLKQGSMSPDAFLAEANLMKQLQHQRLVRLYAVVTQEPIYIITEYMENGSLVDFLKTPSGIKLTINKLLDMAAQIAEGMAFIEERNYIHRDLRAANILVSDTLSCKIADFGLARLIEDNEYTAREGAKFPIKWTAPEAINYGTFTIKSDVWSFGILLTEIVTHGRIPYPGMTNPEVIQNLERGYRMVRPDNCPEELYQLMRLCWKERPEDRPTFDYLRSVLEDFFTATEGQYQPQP

[2] = biological target: T1, Tyrosine-protein kinase Lck; assay: Inhibition of LCK (unknown origin) assessed as remaining activity at 3 x 10^-5 M after 120 mins in presence of 33P-ATP (reference value: […]% to […]%); settings: at 30 µM
Target sequence in this assay (P06239 2-509 limits assumed): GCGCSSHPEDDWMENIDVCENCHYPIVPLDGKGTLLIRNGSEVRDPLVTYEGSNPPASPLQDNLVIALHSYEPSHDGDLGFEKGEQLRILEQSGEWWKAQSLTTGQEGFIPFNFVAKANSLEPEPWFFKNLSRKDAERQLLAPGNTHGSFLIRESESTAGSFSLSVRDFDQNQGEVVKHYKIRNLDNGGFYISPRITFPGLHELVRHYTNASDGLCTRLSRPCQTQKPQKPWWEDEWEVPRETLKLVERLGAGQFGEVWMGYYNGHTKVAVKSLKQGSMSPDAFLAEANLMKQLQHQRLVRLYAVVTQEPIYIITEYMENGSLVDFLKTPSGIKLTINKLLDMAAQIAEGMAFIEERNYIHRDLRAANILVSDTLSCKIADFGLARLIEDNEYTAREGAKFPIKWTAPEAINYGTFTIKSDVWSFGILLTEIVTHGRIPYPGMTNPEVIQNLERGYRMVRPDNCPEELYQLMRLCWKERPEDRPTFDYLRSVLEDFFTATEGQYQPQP

[3] = biological target: T1, Tyrosine-protein kinase Lck; assay: Inhibition of LCK (unknown origin) assessed as remaining activity at […] x 10^-6 M after 120 mins in presence of 33P-ATP (reference value: […]% to […]%)
Target sequence in this assay (P06239 2-509 limits assumed): as above

[4] = biological target: T1, Tyrosine-protein kinase Lck; assay: Inhibition of LCK (unknown origin) assessed as remaining activity at 1 x 10^-5 M after 120 mins in presence of 33P-ATP (reference value: […]% to […]%); settings: at 10 µM
Target sequence in this assay (P06239 2-509 limits assumed): as above

[5] = biological target: T1, Tyrosine-protein kinase Lck; assay: Inhibition of LCK (unknown origin) assessed as remaining activity at 3.7 x 10^-7 M after 120 mins in presence of 33P-ATP (reference value: […]% to […]%); settings: at 0.37 µM
Target sequence in this assay (P06239 2-509 limits assumed): as above

[6] = biological target: T1, Tyrosine-protein kinase Lck; assay: Inhibition of LCK (unknown origin) assessed as remaining activity at 3.33 x 10^-6 M after 120 mins in presence of 33P-ATP (reference value: […]% to […]%); settings: at 3.33 µM
Target sequence in this assay (P06239 2-509 limits assumed): as above

[7] = biological target: Homeodomain-interacting protein kinase 1 (Homo sapiens, UniProt Q86Z02); assay: Inhibition of HIPK1 (unknown origin)
[8] = biological target: Macrophage colony-stimulating factor 1 receptor (Homo sapiens, UniProt P07333); assay: Inhibition of FMS (unknown origin) after 120 mins in presence of 33P-ATP
RAW264.7 = assay: Inhibition of LPS-induced NO production in mouse RAW264.7 cells after 24 hrs by Griess assay; type: functional, cell-based; settings: RAW264.7, 24 h
[9] = Cytotoxicity against mouse RAW264.7 cells after 4 hrs by MTT assay; type: cell-based; settings: mouse, RAW264.7 cells

Macrophage colony-stimulating factor 1 receptor, sequence (P07333 whole entry): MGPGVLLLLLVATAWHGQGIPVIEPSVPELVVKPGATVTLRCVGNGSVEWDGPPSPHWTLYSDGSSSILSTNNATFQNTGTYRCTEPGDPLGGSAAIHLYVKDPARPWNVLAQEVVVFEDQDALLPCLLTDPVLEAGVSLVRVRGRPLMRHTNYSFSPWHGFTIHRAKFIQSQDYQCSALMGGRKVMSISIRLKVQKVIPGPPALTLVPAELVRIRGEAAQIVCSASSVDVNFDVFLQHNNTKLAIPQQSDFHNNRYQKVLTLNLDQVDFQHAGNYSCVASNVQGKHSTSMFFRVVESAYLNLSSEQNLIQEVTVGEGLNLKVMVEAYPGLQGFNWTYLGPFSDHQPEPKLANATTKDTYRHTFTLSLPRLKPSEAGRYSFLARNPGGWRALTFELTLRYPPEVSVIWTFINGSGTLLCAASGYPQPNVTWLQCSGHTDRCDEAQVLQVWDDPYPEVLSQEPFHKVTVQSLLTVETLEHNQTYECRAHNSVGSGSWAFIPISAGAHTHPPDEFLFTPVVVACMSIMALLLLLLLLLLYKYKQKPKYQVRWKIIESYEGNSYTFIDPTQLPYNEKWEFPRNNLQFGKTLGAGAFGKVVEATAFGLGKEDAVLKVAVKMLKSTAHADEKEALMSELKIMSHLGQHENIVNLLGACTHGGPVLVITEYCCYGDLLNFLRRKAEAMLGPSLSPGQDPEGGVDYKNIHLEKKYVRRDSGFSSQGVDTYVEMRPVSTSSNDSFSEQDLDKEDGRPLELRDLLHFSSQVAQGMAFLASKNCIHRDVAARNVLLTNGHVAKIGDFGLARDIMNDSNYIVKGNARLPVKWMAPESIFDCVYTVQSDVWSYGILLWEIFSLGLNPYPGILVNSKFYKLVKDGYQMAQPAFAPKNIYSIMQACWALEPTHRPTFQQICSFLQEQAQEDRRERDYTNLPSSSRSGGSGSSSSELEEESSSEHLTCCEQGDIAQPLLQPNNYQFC
Homeodomain-interacting protein kinase 1, sequence (Q86Z02 whole entry): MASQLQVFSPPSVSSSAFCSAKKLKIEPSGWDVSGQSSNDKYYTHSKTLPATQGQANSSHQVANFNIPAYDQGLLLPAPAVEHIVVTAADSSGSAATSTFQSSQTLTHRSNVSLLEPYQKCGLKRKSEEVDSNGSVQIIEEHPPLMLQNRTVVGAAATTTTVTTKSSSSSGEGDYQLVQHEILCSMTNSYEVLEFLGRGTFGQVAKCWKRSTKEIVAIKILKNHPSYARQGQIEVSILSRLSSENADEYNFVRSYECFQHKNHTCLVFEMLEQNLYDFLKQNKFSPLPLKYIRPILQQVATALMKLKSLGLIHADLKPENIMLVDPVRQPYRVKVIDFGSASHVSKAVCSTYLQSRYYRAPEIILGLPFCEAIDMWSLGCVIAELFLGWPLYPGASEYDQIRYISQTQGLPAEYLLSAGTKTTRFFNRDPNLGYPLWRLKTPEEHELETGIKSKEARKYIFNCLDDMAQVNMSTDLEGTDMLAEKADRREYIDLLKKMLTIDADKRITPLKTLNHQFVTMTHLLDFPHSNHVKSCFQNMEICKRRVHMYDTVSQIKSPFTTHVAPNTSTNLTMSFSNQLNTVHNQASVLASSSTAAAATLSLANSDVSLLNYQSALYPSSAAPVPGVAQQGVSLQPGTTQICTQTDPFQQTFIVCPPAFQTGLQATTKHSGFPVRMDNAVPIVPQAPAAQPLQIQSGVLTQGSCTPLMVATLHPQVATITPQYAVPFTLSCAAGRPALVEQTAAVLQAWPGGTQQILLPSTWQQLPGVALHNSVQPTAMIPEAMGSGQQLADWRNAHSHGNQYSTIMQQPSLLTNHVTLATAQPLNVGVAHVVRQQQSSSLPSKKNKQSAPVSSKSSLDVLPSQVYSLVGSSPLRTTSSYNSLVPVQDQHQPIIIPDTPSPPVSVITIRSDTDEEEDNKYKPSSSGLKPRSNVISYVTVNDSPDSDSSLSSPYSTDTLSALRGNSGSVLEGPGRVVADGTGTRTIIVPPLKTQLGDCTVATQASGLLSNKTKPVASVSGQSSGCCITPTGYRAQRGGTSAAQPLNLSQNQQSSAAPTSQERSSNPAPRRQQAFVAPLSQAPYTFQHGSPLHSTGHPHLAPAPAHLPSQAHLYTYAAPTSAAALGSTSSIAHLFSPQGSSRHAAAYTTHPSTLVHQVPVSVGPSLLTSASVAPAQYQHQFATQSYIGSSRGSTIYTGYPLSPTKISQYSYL

IC50 [1] | Activity [2] | Activity [3] | Activity [4] | Activity [5] | Activity [6] | IC50 [7] | IC50 [8] | SMILES | IC50 (RAW264.7) | IC80 at 4 h [9]
 |  |  |  |  |  | 0.367 nM |  | Cn1cc(C2=C(c3cn(CCCSC(=N)N)c4ccccc34)C(=O)NC2=O)c2ccccc21 |  | 
0.006 µM | 24.1 to 28.5% | 19.2 to 20.1% | 55.5 to 56.8% | 39.7 to 40.7% | 24.7 to 27.4% |  |  | COc1cc(C)ccc1Oc1nc(Nc2ccc(N3CCOCC3)cc2)ncc1/N=C/c1cc(C(F)(F)F)cc(C(F)(F)F)c1 |  | 
> 100 µM | 90.7 to 95.4% | 98 to 102% | 92.4 to 97.2% | 96.3 to 102% | 96.5 to 99.7% |  |  | COc1ccc(NC(=O)Nc2cnc(Nc3cc(OC)cc(OC)c3)nc2Oc2ccc(C)cc2OC)cc1 |  | 
11.6 µM | 41.1 to 41.7% | 88.1 to 91.2% | 55.1 to 58.1% | 104% | 66.6 to 71% |  |  | COc1cc(C)ccc1Oc1nc(Nc2ccc(N3CCOCC3)cc2)ncc1NCc1cc(C(F)(F)F)cc(C(F)(F)F)c1 |  | 
41.4 µM | 60.4 to 61.1% | 101 to 106% | 77.3 to 82% | 103 to 108% | 90.1 to 95.8% |  |  | COc1cc(NC(=O)Nc2cnc(Nc3cc(OC)cc(OC)c3)nc2Oc2ccc(C)cc2OC)cc(OC)c1 |  | 
> 100 µM | 83.5 to 89.8% | 96 to 98% | 89.7 to 95.1% | 95.3 to 99.2% | 91 to 91.3% |  |  | COc1cc(C)ccc1Oc1nc(Nc2ccc(N3CCOCC3)cc2)ncc1NC(=O)Nc1cc(C(F)(F)F)cc(C(F)(F)F)c1 |  | 

Continued, compound first:

SMILES | IC50 [1] | Activity [2] | Activity [3] | Activity [4] | Activity [5] | Activity [6] | IC50 [7] | IC50 [8] | IC50 (RAW264.7) | IC80 at 4 h [9]
COc1cc(Nc2ncc(NC(=O)Nc3c(Cl)cccc3Cl)c(Oc3ccc(C)cc3OC)n2)cc(OC)c1 | 58.4 µM | 61.5 to 61.7% | 94 to 95.5% | 72.6 to 81.8% | 93.7 to 96% | 85.2 to 88.2% |  |  |  | 
COc1cc(C)ccc1Oc1nc(Nc2ccc(N3CCOCC3)cc2)ncc1NC(=O)Nc1c(Cl)cccc1Cl | 17.4 µM | 34.8 to 38.1% | 86.8 to 89.4% | 58.3 to 62.7% | 93.2 to 97.7% | 75.6 to 81.8% |  |  |  | 
COc1cc(/C=N/c2cnc(Nc3ccc(N4CCOCC4)cc3)nc2Oc2ccc(C(F)(F)F)cc2)cc(OC)c1 | 12.1 µM | 49.4 to 59.3% | 61.8 to 72.5% | 43.8 to 52.2% | 83.1 to 91.7% | 58.4 to 60% |  | 14 nM |  | 
COc1cc(NC(=O)Nc2cnc(Nc3ccc(N4CCOCC4)cc3)nc2Oc2ccc(F)cc2)cc(OC)c1 | 71.1 µM | 52.5 to 61.6% | 84 to 87.5% | 68.9 to 70.1% | 83.2 to 90.3% | 77.8 to 81.3% |  |  |  | 
C/C(=N/N)NCCCC[C@H](N)C(=O)O |  |  |  |  |  |  |  |  | 28.3 µM | 
COc1cc(C)ccc1Oc1nc(Nc2ccc(N3CCOCC3)cc2)ncc1/N=C/c1ccc(Cl)cc1 | 0.054 µM | 16.8% | 19.1% | 10.6% | 38.2% | 14.7% |  |  | > 5 µM | > 6 µM
COc1cc(C)ccc1Oc1nc(Nc2ccc(N3CCOCC3)cc2)ncc1/N=C/c1cccc(Cl)c1 | 0.062 µM | 28.6 to 36.9% | 19.6 to 23.2% | 11.3 to 14.9% | 32.6 to 35.6% | 15.3 to 16.8% |  |  | > 1 µM | > 1 µM
COc1cc(Nc2ncc(NC(=O)c3cc(OC)cc(OC)c3)c(Oc3ccc(C)cc3OC)n2)cc(OC)c1 | > 100 µM | 92.3 to 96.8% | 99.6 to 102% | 95.7 to 97.5% | 98.3 to 103% | 100 to 101% |  |  |  | 
COc1cc(NC(=O)Nc2cnc(Nc3ccc(N4CCOCC4)cc3)nc2Oc2cccc(OC)c2)cc(OC)c1 | 7.97 µM | 62.1 to 63.2% | 64.7 to 71% | 42.1 to 49.3% | 78.7 to 86.2% | 57.6 to 66.5% |  |  |  | 
COc1cc(C)ccc1Oc1nc(Nc2ccc(N3CCOCC3)cc2)ncc1/N=C/c1cccc(OC(C)C)c1 | 0.039 µM | 12.4 to 16.2% | 27.6 to 29.2% | 19.8 to 20.8% | 37.5 to 37.9% | 20 to 24.3% |  |  | > 5 µM | > 6 µM
